# Experiments:
# GRK2 = molecular target: T1, GRK2 (Homo sapiens, UniProt P25098); assay: Lance Kinase Activity Assay, GRK2; settings: biochemical Lance kinase activity assay; class symbols A-F; read-out: GRK2 LANCE Assay (IC-50)
# T1 construct: purchased Thermo Scientific
# T1 sequence (P25098 1-689): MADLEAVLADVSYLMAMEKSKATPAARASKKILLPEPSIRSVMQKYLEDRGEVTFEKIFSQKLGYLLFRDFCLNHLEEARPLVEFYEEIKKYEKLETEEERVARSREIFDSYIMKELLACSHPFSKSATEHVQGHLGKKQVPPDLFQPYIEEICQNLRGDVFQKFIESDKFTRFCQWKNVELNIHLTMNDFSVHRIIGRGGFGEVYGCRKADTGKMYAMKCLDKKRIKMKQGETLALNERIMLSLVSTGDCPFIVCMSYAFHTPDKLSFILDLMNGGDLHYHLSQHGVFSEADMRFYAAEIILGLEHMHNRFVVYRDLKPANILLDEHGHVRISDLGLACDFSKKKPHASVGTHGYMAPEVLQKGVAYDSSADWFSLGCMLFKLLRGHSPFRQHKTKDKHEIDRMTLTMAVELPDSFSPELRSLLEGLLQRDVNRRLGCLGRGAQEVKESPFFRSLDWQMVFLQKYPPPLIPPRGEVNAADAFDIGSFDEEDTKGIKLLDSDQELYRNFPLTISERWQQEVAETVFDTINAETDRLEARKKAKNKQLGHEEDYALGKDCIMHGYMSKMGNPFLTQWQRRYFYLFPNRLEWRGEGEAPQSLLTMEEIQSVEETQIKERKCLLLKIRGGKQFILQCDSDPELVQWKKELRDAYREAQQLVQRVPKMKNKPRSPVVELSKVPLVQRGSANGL
# Procedure, shortened: (§1)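 IC50s from sigmoidal dose-response over 0.0025-10 μM compound, with phosphorylated ULight substrate detected by Eu anti-phospho antibody FRET after EDTA quench.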
# GRK5 = molecular target: T2, GRK5 (Homo sapiens, UniProt P34947); assay: Lance Kinase Activity Assay, GRK5; settings: biochemical Lance kinase activity assay; class symbols A-F; read-out: GRK5 LANCE Assay (IC-50)
# T2 construct: purchased Thermo Scientific
# T2 sequence (P34947 whole entry): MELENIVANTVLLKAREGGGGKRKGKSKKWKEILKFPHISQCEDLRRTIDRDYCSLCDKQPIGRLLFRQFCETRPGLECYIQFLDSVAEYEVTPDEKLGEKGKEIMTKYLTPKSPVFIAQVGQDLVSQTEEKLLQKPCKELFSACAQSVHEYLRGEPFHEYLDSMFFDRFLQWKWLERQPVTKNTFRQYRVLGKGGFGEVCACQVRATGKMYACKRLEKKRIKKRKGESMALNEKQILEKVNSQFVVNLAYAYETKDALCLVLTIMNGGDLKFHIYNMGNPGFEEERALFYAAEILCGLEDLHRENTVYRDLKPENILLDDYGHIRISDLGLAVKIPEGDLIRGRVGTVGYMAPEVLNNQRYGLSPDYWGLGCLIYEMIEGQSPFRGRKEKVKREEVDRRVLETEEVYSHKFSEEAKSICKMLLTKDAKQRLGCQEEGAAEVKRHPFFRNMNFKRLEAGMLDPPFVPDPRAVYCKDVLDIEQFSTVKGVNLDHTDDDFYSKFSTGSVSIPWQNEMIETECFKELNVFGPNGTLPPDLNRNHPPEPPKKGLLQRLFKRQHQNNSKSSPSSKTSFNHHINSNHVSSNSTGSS
# Procedure, shortened: as §1
Compound,IC50 (GRK2) [nM],IC50 (GRK5) [nM]
"COc1ccc([C@@H](C)NC(=O)/C=C/c2c[nH]c3nccc(-c4cnn(C)c4)c23)cc1OC [Example 238, (R,E)-N-(1-(3,4-dimethoxyphenyl)ethyl)-3-(4-(1-methyl-1H-pyrazol-4-yl)-1H-pyrrolo[2,3-b]pyridin-3-yl)acrylamide]",> 10000,100 to 500
"COc1ccc([C@@H](C)NC(=O)/C=C/c2c[nH]c3ncc(-c4ccccc4CN4CCOCC4)cc23)cc1OC [Example 206, (R,E)-N-(1-(3,4-dimethoxyphenyl)ethyl)-3-(5-(2-(morpholinomethyl)phenyl)-1H-pyrrolo[2,3-b]pyridin-3-yl)acrylamide]",> 10000,1000 to 10000
"COc1ccc([C@@H](C)NC(=O)/C=C/c2c[nH]c3ncc(OC4CCS(=O)(=O)CC4)cc23)cc1OC [Example 55, (R,E)-N-(1-(3,4-dimethoxyphenyl)ethyl)-3-(5-((1,1-dioxidotetrahydro-2H-thiopyran-4-yl)oxy)-1H-pyrrolo[2,3-b]pyridin-3-yl)acrylamide]",> 10000,≤ 50
"COc1ccc([C@@H](C)NC(=O)/C=C/c2c[nH]c3ncc(-c4cncnc4)cc23)cc1OC [Example 207, (R,E)-N-(1-(3,4-dimethoxyphenyl)ethyl)-3-(5-(pyrimidin-5-yl)-1H-pyrrolo[2,3-b]pyridin-3-yl)acrylamide]",> 10000,500 to 1000
"COc1ccc([C@@H](C)NC(=O)/C(C#N)=C/c2c[nH]c3ncc(-c4ccc(C(N)=O)cc4)cc23)cc1OC [Example 126, (R,E)-4-(3-(2-cyano-3-((1-(3,4-dimethoxyphenyl)ethyl)amino)-3-oxoprop-1-en-1-yl)-1H-pyrrolo[2,3-b]pyridin-5-yl)benzamide]",> 10000,50 to 100
"N#C/C(=C\c1c[nH]c2ncccc12)C(=O)NC(c1cccc(Br)c1)C(F)(F)F (centres unmarked) [Example 47, (E)-N-(1-(3-bromophenyl)-2,2,2-trifluoroethyl)-2-cyano-3-(1H-pyrrolo[2,3-b]pyridin-3-yl)acrylamide]",> 10000,1000 to 10000
"COc1ccc([C@@H](C)NC(=O)/C(C#N)=C/c2c[nH]c3nc(Br)ccc23)cc1OC [Example 90, (R,E)-3-(6-bromo-1H-pyrrolo[2,3-b]pyridin-3-yl)-2-cyano-N-(1-(3,4-dimethoxyphenyl)ethyl)acrylamide]",> 10000,100 to 500
"COc1ccc([C@@H](C)NC(=O)/C=C/c2c[nH]c3ncc(-c4cc(Cl)cc(S(C)(=O)=O)c4)cc23)cc1OC [Example 247, (R,E)-3-(5-(3-chloro-5-(methylsulfonyl)phenyl)-1H-pyrrolo[2,3-b]pyridin-3-yl)-N-(1-(3,4-dimethoxyphenyl)ethyl)acrylamide]",> 10000,≤ 50
"COc1ccc([C@@H](C)NC(=O)/C=C/c2c[nH]c3ncc(-c4cccc([S+]([O-])C(F)(F)F)c4)cc23)cc1OC (stereo partly drawn) [Example 263, (E)-N-((R)-1-(3,4-dimethoxyphenyl)ethyl)-3-(5-(3-((trifluoromethyl)sulfinyl)phenyl)-1H-pyrrolo[2,3-b]pyridin-3-yl)acrylamide]",> 10000,≤ 50
"CC[C@@H](NC(=O)/C(C#N)=C/c1c[nH]c2ncc(Cl)cc12)c1ccccc1 [Example 77, (R,E)-3-(5-chloro-1H-pyrrolo[2,3-b]pyridin-3-yl)-2-cyano-N-(1-phenylpropyl)acrylamide]",1000 to 10000,100 to 500
"COc1ccc([C@@H](C)NC(=O)/C=C/c2c[nH]c3ncc(-c4ccccc4S(C)(=O)=O)cc23)cc1OC [Example 222, (R,E)-N-(1-(3,4-dimethoxyphenyl)ethyl)-3-(5-(2-(methylsulfonyl)phenyl)-1H-pyrrolo[2,3-b]pyridin-3-yl)acrylamide]",> 10000,1000 to 10000
"COc1ccc([C@@H](C)NC(=O)/C(C#N)=C/c2c[nH]c3ncc(OC(C)C)cc23)cc1OC [Example 102, (R,E)-2-cyano-N-(1-(3,4-dimethoxyphenyl)ethyl)-3-(5-isopropoxy-1H-pyrrolo[2,3-b]pyridin-3-yl)acrylamide]",> 10000,≤ 50
COc1ccc([C@@H](C)NC(=O)/C(C#N)=C/c2c[nH]c3ncc(-c4cc(F)cc(F)c4)cc23)cc1OC [Example 131],1000 to 10000,50 to 100
"COc1ccc([C@@H](C)NC(=O)/C(C#N)=C/c2c[nH]c3ncc(-c4ccc(N5CCN(C)CC5)cc4)c(C)c23)cc1OC [Example 244, (R,E)-2-cyano-N-(1-(3,4-dimethoxyphenyl)ethyl)-3-(4-methyl-5-(4-(4-methylpiperazin-1-yl)phenyl)-1H-pyrrolo[2,3-b]pyridin-3-yl)acrylamide]",1000 to 10000,500 to 1000
COc1ccc([C@@H](C)NC(=O)/C(C#N)=C/c2c[nH]c3ncc(-c4ccc(C#N)cc4)cc23)cc1OC [Example 139],> 10000,50 to 100

# Second part, the molecule after the results:
IC50 (GRK2) [nM],IC50 (GRK5) [nM],Compound
1000 to 10000,≤ 50,"COc1ccc([C@@H](C)NC(=O)/C(C#N)=C/c2c[nH]c3nccc(-c4cccc(N5CCN(C)CC5)c4)c23)cc1OC [Example 172, (R,E)-2-cyano-N-(1-(3,4-dimethoxyphenyl)ethyl)-3-(4-(3-(4-methylpiperazin-1-yl)phenyl)-1H-pyrrolo[2,3-b]pyridin-3-yl)acrylamide]"
1000 to 10000,≤ 50,"COc1ccc([C@@H](C)NC(=O)/C(C#N)=C/c2c[nH]c3ncc(-c4cn(C)nc4C)cc23)cc1OC [Example 168, (R,E)-2-cyano-N-(1-(3,4-dimethoxyphenyl)ethyl)-3-(5-(1,3-dimethyl-1H-pyrazol-4-yl)-1H-pyrrolo[2,3-b]pyridin-3-yl)acrylamide]"
100 to 500,50 to 100,"C[C@@H](NC(=O)/C(C#N)=C/c1c[nH]c2ncccc12)c1ccccc1 [Example 64, (R,E)-2-cyano-N-(1-phenylethyl)-3-(1H-pyrrolo[2,3-b]pyridin-3-yl)acrylamide]"
500 to 1000,≤ 50,COc1ccc([C@@H](C)NC(=O)/C(C#N)=C/c2c[nH]c3ncc(-c4ccc(N5CCN(C)CC5)cc4OC)cc23)cc1OC [Example 153]
1000 to 10000,50 to 100,"COc1ccc([C@@H](C)NC(=O)/C=C/c2c[nH]c3nccc(-c4ccccc4)c23)cc1OC [Example 225, (R,E)-N-(1-(3,4-dimethoxyphenyl)ethyl)-3-(4-phenyl-1H-pyrrolo[2,3-b]pyridin-3-yl)acrylamide]"
100 to 500,100 to 500,"C[C@@H](NC(=O)/C(C#N)=C/c1c[nH]c2ncccc12)c1ccc(F)cc1F [Example 17, (R,E)-2-cyano-N-(1-(2,4-difluorophenyl)ethyl)-3-(1H-pyrrolo[2,3-b]pyridin-3-yl)acrylamide]"
1000 to 10000,100 to 500,"N#C/C(=C\c1c[nH]c2ncccc12)C(=O)NCc1ccccc1C#N [Example 35, (E)-2-cyano-N-(2-cyanobenzyl)-3-(1H-pyrrolo[2,3-b]pyridin-3-yl)acrylamide]"
500 to 1000,100 to 500,"C[C@@H](NC(=O)/C(C#N)=C/c1c[nH]c2ncccc12)c1cccc(C(F)(F)F)c1 [Example 18, (R,E)-2-cyano-3-(1H-pyrrolo[2,3-b]pyridin-3-yl)-N-(1-(3-(trifluoromethyl)phenyl)ethyl)acrylamide]"
1000 to 10000,≤ 50,COc1ccc([C@@H](C)NC(=O)/C(C#N)=C/c2c[nH]c3ncc(-c4cnn(C5COC5)c4)cc23)cc1OC [Example 155]
1000 to 10000,≤ 50,"COc1ccc([C@@H](C)NC(=O)/C(C#N)=C/c2c[nH]c3ncc(-c4cccc(CN5CCN(C)CC5)c4)cc23)cc1OC [Example 118, (R,E)-2-cyano-N-(1-(3,4-dimethoxyphenyl)ethyl)-3-(5-(3-((4-methylpiperazin-1-yl)methyl)phenyl)-1H-pyrrolo[2,3-b]pyridin-3-yl)acrylamide]"
1000 to 10000,≤ 50,COc1ccc([C@@H](C)NC(=O)C(C#N)=Cc2c[nH]c3ncc(-c4ccc(CCN(C)C)cc4)cc23)cc1OC (stereo in doubt) [Example 135]
100 to 500,≤ 50,"C[C@@H](NC(=O)/C=C/c1c[nH]c2ncc(-c3cnn(C)c3)cc12)c1ccc(F)c(F)c1 [Example 257, (R,E)-N-(1-(3,4-difluorophenyl)ethyl)-3-(5-(1-methyl-1H-pyrazol-4-yl)-1H-pyrrolo[2,3-b]pyridin-3-yl)acrylamide]"
500 to 1000,≤ 50,"COc1ccc([C@@H](C)NC(=O)/C(C#N)=C/c2c[nH]c3ncc(-c4ccc(C5CCN(C)CC5)cc4)cc23)cc1OC [Example 132, (R,E)-2-cyano-N-(1-(3,4-dimethoxyphenyl)ethyl)-3-(5-(4-(1-methylpiperidin-4-yl)phenyl)-1H-pyrrolo[2,3-b]pyridin-3-yl)acrylamide]"

# Source: patent publication US20240294522A1 (Lead Discovery Center GmbH, priority 2021, published 2024)
